From ChEMBL document CHEMBL3259567, “Novel 2,4-Diarylaminopyrimidine Analogues (DAAPalogues) Showing Potent c-Met/ALK Multikinase Inhibitory Activities” (ACS Med Chem Lett, 2014)
Blank lines part the entries; values can stand above or below the compound they belong to. Active and inactive are the calls of the source. No cut-off for these calls is given here.

What was measured:
[1] = molecular target: ALK tyrosine kinase receptor (Homo sapiens, UniProt Q9UM73)
[2] = molecular target: Hepatocyte growth factor receptor (Homo sapiens, UniProt P08581)
Chain of Hepatocyte growth factor receptor (P08581 whole entry): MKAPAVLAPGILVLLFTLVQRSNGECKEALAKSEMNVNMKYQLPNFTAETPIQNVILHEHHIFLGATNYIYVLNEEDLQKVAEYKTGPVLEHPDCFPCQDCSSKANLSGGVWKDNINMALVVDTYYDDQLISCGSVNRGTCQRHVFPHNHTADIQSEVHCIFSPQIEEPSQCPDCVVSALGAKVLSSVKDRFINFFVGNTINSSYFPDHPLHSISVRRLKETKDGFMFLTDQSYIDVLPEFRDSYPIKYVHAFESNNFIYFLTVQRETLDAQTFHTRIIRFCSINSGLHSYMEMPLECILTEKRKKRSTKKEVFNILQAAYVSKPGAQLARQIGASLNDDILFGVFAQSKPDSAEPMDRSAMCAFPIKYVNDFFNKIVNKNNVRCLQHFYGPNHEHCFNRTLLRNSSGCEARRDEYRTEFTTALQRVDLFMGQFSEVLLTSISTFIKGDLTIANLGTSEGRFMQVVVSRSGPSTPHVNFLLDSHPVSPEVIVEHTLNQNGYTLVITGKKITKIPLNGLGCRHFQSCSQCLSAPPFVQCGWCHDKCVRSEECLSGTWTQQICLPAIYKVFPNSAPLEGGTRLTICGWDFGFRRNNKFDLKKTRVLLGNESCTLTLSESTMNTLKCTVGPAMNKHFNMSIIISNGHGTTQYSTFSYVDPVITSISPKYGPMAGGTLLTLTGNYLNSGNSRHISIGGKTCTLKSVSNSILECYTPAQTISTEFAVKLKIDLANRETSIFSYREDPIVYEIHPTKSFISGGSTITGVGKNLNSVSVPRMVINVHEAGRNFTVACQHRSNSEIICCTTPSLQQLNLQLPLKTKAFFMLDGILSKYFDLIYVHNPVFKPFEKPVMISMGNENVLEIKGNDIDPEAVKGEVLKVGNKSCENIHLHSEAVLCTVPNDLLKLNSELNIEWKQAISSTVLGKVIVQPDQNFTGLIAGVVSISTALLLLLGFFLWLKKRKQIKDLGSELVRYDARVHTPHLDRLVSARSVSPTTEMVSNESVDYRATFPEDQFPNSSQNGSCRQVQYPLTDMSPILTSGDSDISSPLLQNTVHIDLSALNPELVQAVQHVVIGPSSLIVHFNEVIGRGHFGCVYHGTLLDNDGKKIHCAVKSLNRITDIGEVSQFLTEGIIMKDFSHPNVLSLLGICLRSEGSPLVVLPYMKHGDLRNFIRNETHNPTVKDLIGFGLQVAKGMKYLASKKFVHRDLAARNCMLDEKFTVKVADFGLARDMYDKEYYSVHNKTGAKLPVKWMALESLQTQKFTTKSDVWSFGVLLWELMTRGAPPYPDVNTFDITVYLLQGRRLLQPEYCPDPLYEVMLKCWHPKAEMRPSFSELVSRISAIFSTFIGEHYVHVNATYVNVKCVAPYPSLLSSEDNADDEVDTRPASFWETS

[3] = molecular target: D(1A) dopamine receptor (Homo sapiens, UniProt P21728); test: Antagonist activity at dopamine D1 receptor (unknown origin)
Chain of D(1A) dopamine receptor (P21728 whole entry): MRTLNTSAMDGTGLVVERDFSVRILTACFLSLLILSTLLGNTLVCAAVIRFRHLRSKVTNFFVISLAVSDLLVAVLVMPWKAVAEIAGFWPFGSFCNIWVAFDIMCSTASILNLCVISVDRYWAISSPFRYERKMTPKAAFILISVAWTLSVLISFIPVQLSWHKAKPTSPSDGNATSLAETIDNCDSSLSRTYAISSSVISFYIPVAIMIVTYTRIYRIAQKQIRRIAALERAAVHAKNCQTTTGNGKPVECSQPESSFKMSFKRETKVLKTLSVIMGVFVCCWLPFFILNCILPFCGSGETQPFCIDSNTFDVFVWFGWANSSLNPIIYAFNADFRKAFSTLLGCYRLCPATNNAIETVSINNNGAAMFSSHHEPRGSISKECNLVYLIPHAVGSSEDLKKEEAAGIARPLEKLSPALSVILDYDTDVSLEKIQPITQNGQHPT

[4] = molecular target: D(1B) dopamine receptor (Homo sapiens, UniProt P21918); test: Antagonist activity at dopamine D5 receptor (unknown origin)
[5] = tested on: BaF3; test: Antitumor activity against mouse BAF3 cells expressing EML4-ALK fusion protein allografted in nude mouse assessed as tumor growth inhibition at 0.3 to 1 mg/kg, po qd for 2 weeks relative to vehicle-treated control; format: functional, organism-based
[6] = cells; conditions: Homo sapiens, KARPAS-299, 72 h
Description: Antiproliferative activity against ALK-dependent human KARPAS299 cells after 72 hrs

[7] = molecular target: Proto-oncogene tyrosine-protein kinase Src (Homo sapiens) (UniProt P12931); test: Inhibition of purified recombinant c-SRC (unknown origin) at 1 uM after 60 mins by ELISA
Chain of Proto-oncogene tyrosine-protein kinase Src (Homo sapiens) (P12931 2-536 limits assumed): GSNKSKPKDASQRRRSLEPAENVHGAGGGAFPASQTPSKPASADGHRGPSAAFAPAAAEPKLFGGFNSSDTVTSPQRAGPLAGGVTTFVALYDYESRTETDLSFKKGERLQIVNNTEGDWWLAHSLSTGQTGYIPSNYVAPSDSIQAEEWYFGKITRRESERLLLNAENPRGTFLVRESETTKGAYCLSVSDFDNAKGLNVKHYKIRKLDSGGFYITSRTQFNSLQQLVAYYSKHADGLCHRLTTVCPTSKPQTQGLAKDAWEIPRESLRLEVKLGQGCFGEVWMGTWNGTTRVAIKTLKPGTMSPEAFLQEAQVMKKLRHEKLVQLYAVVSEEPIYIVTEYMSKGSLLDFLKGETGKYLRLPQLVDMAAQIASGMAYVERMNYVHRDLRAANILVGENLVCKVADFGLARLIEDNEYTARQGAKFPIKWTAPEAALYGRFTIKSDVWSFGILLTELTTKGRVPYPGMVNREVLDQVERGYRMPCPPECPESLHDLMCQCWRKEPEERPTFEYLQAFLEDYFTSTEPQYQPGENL

[8] = Half life in mouse at 10 mg/kg, iv; format: ADME, organism-based; design: dose 10 mg/kg, route intravenous; conditions: in vivo
[9] = AUC (0 to infinity) in mouse at 20 mg/kg, po; format: ADME, organism-based; design: time infinity, dose 20 mg/kg, route oral; conditions: plasma
[10] = Oral bioavailability in mouse at 20 mg/kg; format: ADME, organism-based; conditions: in vivo
[11] = molecular target: Macrophage-stimulating protein receptor (Homo sapiens) (UniProt Q04912); test: Inhibition of purified recombinant RON (unknown origin) at 1 uM after 60 mins by ELISA
[12] = Clearance in mouse at 10 mg/kg, iv; format: ADME, organism-based; design: dose 10 mg/kg, route intravenous; conditions: in vivo
[13] = molecular target: Proto-oncogene tyrosine-protein kinase receptor Ret (Homo sapiens) (UniProt P07949); test: Inhibition of purified recombinant RET (unknown origin) at 1 uM after 60 mins by ELISA
Chain of Proto-oncogene tyrosine-protein kinase receptor Ret (Homo sapiens) (P07949 whole entry): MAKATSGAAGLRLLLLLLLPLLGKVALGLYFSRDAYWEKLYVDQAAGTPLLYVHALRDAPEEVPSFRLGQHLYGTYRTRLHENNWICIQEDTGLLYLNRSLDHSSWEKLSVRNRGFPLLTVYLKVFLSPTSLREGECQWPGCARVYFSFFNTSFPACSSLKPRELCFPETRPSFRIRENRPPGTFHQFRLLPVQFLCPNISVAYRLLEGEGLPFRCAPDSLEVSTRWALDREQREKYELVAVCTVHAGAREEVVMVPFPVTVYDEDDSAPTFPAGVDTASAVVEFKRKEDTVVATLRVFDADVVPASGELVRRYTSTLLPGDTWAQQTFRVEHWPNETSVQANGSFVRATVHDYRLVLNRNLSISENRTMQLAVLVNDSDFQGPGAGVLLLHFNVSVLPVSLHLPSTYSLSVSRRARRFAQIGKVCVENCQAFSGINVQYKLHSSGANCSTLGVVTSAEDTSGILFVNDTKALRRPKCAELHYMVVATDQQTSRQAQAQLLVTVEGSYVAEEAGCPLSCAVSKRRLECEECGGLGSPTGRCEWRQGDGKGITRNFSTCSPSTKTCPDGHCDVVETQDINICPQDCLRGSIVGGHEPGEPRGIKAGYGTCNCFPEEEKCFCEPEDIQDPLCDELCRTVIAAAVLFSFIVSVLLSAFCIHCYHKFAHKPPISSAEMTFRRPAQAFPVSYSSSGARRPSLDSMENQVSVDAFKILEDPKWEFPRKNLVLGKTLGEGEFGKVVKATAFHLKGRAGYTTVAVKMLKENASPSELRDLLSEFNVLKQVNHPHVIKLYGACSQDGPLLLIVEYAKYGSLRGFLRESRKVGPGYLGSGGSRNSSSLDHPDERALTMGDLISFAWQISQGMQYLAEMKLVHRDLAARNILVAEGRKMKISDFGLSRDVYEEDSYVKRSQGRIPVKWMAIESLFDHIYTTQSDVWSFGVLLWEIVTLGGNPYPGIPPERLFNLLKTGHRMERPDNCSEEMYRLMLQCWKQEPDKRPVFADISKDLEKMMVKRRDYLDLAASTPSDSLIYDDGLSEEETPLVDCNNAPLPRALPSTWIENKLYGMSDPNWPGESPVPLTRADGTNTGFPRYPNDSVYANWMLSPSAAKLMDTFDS

[14] = molecular target: Fibroblast growth factor receptor 1 (Homo sapiens) (UniProt P11362); test: Inhibition of purified recombinant FGFR1 (unknown origin) at 1 uM after 60 mins by ELISA
[15] = cells; conditions: Homo sapiens, EBC-1, 72 h
Description: Antiproliferative activity against cMET-amplified human EBC1 cells after 72 hrs

[16] = tested on: BaF3; test: Antitumor activity against mouse BAF3 cells expressing EML4-ALK fusion protein allografted in nude mouse assessed as tumor growth inhibition at 1 mg/kg, po qd for 2 weeks relative to vehicle-treated control; format: functional; conditions: BaF3, 336 h, read-out: TGI

Chain of ALK tyrosine kinase receptor (Q9UM73 whole entry): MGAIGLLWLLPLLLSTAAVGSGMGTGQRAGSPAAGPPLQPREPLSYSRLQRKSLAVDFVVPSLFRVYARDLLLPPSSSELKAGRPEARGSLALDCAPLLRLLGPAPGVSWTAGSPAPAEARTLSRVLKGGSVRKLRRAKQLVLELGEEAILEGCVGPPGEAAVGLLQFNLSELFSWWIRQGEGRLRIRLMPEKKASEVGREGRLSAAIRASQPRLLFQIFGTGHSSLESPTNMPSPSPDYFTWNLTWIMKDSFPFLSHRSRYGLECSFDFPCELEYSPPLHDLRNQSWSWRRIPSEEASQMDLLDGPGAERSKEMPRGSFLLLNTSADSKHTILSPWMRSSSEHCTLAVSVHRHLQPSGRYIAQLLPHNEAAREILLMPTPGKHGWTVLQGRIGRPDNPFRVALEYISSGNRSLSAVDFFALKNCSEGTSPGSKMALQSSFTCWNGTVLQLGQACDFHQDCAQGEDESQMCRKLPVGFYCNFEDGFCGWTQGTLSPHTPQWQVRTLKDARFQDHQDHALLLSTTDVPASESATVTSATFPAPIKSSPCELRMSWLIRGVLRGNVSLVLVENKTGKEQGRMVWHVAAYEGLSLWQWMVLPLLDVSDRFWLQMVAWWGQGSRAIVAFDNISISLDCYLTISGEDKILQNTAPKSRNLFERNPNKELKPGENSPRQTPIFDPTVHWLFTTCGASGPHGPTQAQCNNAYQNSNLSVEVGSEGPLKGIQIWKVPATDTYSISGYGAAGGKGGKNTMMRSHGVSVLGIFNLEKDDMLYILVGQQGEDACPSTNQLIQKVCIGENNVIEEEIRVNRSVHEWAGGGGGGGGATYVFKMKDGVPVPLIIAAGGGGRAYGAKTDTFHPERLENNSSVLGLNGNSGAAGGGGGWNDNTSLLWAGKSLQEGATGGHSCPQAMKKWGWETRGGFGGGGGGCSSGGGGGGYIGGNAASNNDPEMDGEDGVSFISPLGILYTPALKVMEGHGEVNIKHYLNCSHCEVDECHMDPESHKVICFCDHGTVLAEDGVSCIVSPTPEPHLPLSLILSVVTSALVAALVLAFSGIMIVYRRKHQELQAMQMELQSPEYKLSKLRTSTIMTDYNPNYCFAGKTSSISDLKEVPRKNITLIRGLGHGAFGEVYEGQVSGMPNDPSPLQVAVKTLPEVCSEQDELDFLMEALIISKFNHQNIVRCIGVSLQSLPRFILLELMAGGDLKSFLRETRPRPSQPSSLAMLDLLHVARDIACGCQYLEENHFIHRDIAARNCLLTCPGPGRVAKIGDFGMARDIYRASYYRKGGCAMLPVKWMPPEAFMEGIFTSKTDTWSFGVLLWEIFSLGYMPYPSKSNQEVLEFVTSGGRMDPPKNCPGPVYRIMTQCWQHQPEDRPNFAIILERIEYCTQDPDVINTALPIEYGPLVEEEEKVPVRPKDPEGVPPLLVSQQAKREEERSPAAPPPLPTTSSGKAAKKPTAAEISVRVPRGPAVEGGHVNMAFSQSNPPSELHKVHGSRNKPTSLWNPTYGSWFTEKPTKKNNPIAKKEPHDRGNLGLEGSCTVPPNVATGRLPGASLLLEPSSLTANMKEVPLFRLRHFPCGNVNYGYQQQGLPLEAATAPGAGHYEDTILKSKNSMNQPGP

SMILES: CNC(=O)c1ccccc1Nc1nc(Nc2ccc3c(c2)C(C)CNCC3)ncc1Cl (centres undefined)
- IC50 [1]: 7.9 nM
- IC50 [2]: 6.4 nM

SMILES: CNC(=O)c1ccccc1Nc1nc(Nc2ccc3c(c2)C(C)CN(C)CC3)nc2ccccc12 (centres undefined)
- IC50 [1]: > 1000 nM
- IC50 [2]: > 1000 nM

SMILES: CN1CCc2ccccc2Cc2[nH]c3ccccc3c2CC1
- Ki [3]: < 10 nM
- Ki [4]: < 10 nM

SMILES: CNC(=O)c1ccccc1Nc1nc(Nc2ccc3c(c2)C(c2ccccc2)CN(C)CC3)ncc1Cl (racemic)
- TGI [5]: inactive
- IC50 [6]: 30 nM
- inhibition [7]: Active
- half-life [8]: 132 min
- AUC(0-inf) [9]: 9070 ng·h/mL
- bioavailability [10]: 73%
- inhibition [11]: Active
- clearance [12]: 33.3 mL/min/kg
- inhibition [13]: Active
- inhibition [14]: Active

Continued, in another order:

- IC50 [1]: > 1000 nM
- IC50 [2]: > 1000 nM
SMILES: CNC(=O)c1ccccc1Nc1nc(Nc2ccc3c(c2)C(C)CN(C)CC3)nc(F)c1Cl (centres undefined)

- IC50 [1]: > 1000 nM
- IC50 [2]: > 1000 nM
SMILES: CNC(=O)c1ccccc1Nc1nc(Nc2ccc3c(c2)C(C)CN(C)CC3)nc(NC)c1Cl (centres undefined)

- IC50 [1]: > 1000 nM
- IC50 [2]: > 1000 nM
SMILES: CNC(=O)c1ccccc1Nc1nc(Nc2ccc3c(c2)C(C)CN(C)CC3)nc(N2CCOCC2)c1Cl (centres undefined)

- IC50 [1]: > 1000 nM
- IC50 [2]: > 1000 nM
SMILES: CNC(=O)c1ccccc1Nc1nc(Nc2ccc3c(c2)C(C)CN(C)CC3)nc2sccc12 (centres undefined)

- IC50 [1]: > 1000 nM
- IC50 [2]: > 1000 nM
SMILES: CNC(=O)c1ccccc1Nc1nc(Nc2ccc3c(c2)C(C)CN(C)CC3)nc2cccnc12 (centres undefined)

- IC50 [1]: > 1000 nM
- IC50 [2]: > 1000 nM
SMILES: CC1CN(C)CCc2ccc(Nc3ncc(Cl)c(Nc4ccccc4C(=O)N4CCOCC4)n3)cc21 (centres undefined)

- IC50 [15]: 7 nM
- IC50 [6]: 14 nM
- inhibition [7]: Active
- half-life [8]: 132 min
- AUC(0-inf) [9]: 5500 ng·h/mL
- bioavailability [10]: 20%
- inhibition [11]: Active
- clearance [12]: 33.3 mL/min/kg
- inhibition [13]: Active
- inhibition [14]: Active
SMILES: CNC(=O)c1ccccc1Nc1nc(Nc2ccc3c(c2)C(C)CN(C)CC3)ncc1Cl (racemic)
- inhibition in vivo at 1 mg/kg [16]: 60.6%
